Patent publication US5100913A, “Novel sulfonylphenyl-β-D-thioxylosides, their method of preparation and their use in therapeutics” (Fournier Industrie et Sante, priority 1990, dated 1992)

System: venous thrombosis
Assay: antithrombotic activity, venous thrombosis: venous stasis under hypercoagulation (Wessler), thrombus removed and weighed
Type: in vivo, male Wistar rats
Conditions: Rattus norvegicus, oral, suspension in PEG 400, thrombosis induced 4 hours after treatment
Procedure: A venous stasis under hypercoagulation is produced according to the technique described by WESSLER et al. (J. Applied Physiol. 1959, p. 943-946). As in the technique described by J. HAUPMAN et al. (Thrombosis and Haemostasis 43(2), 1980, p. 118), the hypercoagulant used is a solution of activated factor X (Xa) supplied by Flow Laboratories (71 Knat per 12.5 ml of isotonic solution).
The study is performed on unfasted male Wistar rats weighing 250 to 280 g, divided into groups of 10 animals each. The test products are administered orally as a suspension in PEG 400. A thrombosis is induced 4 hours after this treatment and the thrombus formed is removed and weighed.
The results obtained at a dose of 3 mg/kg, administered orally, have been collated in Table I. The results obtained with the known products of the afore-mentioned prior art have also been collated in this Table.

SMILES | inhibition in vivo at 3 mg/kg
CC(=O)O[C@@H]1[C@@H](OC(C)=O)[C@H](Sc2ccc(S(=O)(=O)c3ccccc3)cc2)SC[C@H]1OC(C)=O [Example 1, 4-(phenylsulfonyl)phenyl 2,3,4-tri-O-acetyl-1,5-dithio-β-D-xylopyranoside] | 20%
O=S(=O)(c1ccccc1)c1ccc(S[C@@H]2SC[C@@H](O)[C@H](O)[C@H]2O)cc1 [Example 2, 4-(phenylsulfonyl)phenyl 1,5-dithio-β-D-xylopyranoside] | 49%
CC(=O)O[C@@H]1[C@@H](OC(C)=O)[C@H](Sc2ccccc2S(C)(=O)=O)SC[C@H]1OC(C)=O [Example 3, 2-(methylsulfonyl)phenyl 2,3,4-tri-O-acetyl-1,5-dithio-β-D-xylopyranoside] | 29%
CS(=O)(=O)c1ccccc1S[C@@H]1SC[C@@H](O)[C@H](O)[C@H]1O [Example 4, 2-(methylsulfonyl)phenyl 1.5-dithio-β-D-xylopyranoside] | 26%
CS(=O)(=O)c1ccc(S[C@@H]2SC[C@@H](O)[C@H](O)[C@H]2O)cc1 [Example 6, 4-(methylsulfonyl)phenyl 1,5-dithio-β-D-xylopyranoside] | 61%
CS(=O)(=O)c1ccc(O[C@@H]2SC[C@@H](O)[C@H](O)[C@H]2O)cc1 [Example 8, 4-(methylsulfonyl)phenyl 5-thio-β-D-xylpyranoside] | 30%
CCS(=O)(=O)c1ccc(S[C@@H]2SC[C@@H](OC(C)=O)[C@H](OC(C)=O)[C@H]2OC(C)=O)cc1 [Example 9, 4-(ethylsulfonyl)phenyl 2,3,4-tri-O-acetyl-1,5-dithio-β-D-xylpyranoside] | 31%
CCS(=O)(=O)c1ccc(S[C@@H]2SC[C@@H](O)[C@H](O)[C@H]2O)cc1 [Example 10, 4-(ethylsulfonyl)phenyl 1,5dithio-β-D-xylopyranoside] | 31%
CS(=O)(=O)c1cccc(S[C@@H]2SC[C@@H](O)[C@H](O)[C@H]2O)c1 [Example 12] | 43%
CC(=O)O[C@@H]1[C@@H](OC(C)=O)[C@H](Sc2ccc(S(=O)(=O)c3ccc(F)cc3)cc2)SC[C@H]1OC(C)=O [Example 13] | 58%
O=S(=O)(c1ccc(F)cc1)c1ccc(S[C@@H]2SC[C@@H](O)[C@H](O)[C@H]2O)cc1 [Example 14, 4-[(4-fluorophenyl)sulfonyl]phenyl 1,5-dithio-β-D-xylpyranoside] | 61%
N#Cc1ccc(S(=O)(=O)c2ccc(S[C@@H]3SC[C@@H](O)[C@H](O)[C@H]3O)cc2)cc1 [Example 16, 4-((4-cyanophenyl)sulfonyl)phenyl 1,5-dithio-β-D-xylopyranoside] | 66%
CC(=O)O[C@@H]1[C@@H](OC(C)=O)[C@H](Sc2ccc(S(=O)(=O)N(C)C)cc2)SC[C@H]1OC(C)=O [Example 17, 4-(N,N-dimethylsulfonamidyl)phenyl 2,3,4-tri-O-acetyl-1,5-dithio-β-D-xylpyranoside] | 56%
CN(C)S(=O)(=O)c1ccc(S[C@@H]2SC[C@@H](O)[C@H](O)[C@H]2O)cc1 [Example 18, 4-(N,N-dimethylsulfonamidyl)phenyl 1.5-dithio-β-D-xylopyranoside] | 46%
CC(=O)O[C@@H]1[C@@H](OC(C)=O)[C@H](OC(C)=O)CS[C@H]1Oc1ccc(S(=O)(=O)N(C)C)cc1 [Example 19, 4-(N,N-dimethylsulfonamidyl)phenyl 2,3,4-tri-O-acetyl-5-thio-β-D-xylpyranoside] | 23%
CN(C)S(=O)(=O)c1ccc(O[C@@H]2SC[C@@H](O)[C@H](O)[C@H]2O)cc1 [Example 20, 4-(N,N-dimethylsulfonamidyl)phenyl 5-thio-β-D-xylpyranoside] | 58%
O=S(=O)(c1ccc(S[C@@H]2SC[C@@H](O)[C@H](O)[C@H]2O)cc1)N1CCCCC1 [Example 22, 4-(N-(piperidin-1-yl)sulfonamidyl)phenyl 1,5-dithio-β-D-xylpyranoside] | 47%
